biological target: T1, Thromboxane-A synthase (Homo sapiens, UniProt P24557); experiment: ChEBML_209951
T1 sequence (P24557 whole entry): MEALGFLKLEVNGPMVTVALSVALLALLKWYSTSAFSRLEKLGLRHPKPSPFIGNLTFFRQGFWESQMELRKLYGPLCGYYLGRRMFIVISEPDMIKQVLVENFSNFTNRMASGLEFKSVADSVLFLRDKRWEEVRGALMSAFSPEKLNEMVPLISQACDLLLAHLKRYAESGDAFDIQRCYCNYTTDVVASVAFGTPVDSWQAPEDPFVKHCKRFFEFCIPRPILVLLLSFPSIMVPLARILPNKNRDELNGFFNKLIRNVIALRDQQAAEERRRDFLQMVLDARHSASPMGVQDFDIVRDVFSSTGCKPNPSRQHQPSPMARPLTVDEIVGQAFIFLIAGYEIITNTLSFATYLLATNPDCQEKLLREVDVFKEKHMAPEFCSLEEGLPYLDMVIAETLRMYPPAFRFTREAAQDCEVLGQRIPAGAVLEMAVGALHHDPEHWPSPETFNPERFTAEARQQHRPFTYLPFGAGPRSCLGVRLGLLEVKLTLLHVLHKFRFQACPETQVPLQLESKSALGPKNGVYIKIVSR
Source text: Inhibition of thromboxane A2 synthetase

IC50 [nM] | SMILES
13 | O=C(O)C1=Cc2sc(Cn3ccnc3)cc2CC1 [2-Imidazol-1-ylmethyl-4,5-dihydro-benzo[b]thiophene-6-carboxylic acid]
> 10000 | O=C(O)C1=Cc2cc(C(C3CCCCC3)n3ccnc3)sc2CC1 (stereo not drawn)
114 | O=C(O)c1cc2c(s1)CCC(Cn1ccnc1)C2 (stereo not drawn)
93 | O=C(O)C1=Cc2cc(Cn3ccnc3)sc2CC1
114 | O=C(O)C1=Cc2cc(C(c3ccccc3)n3ccnc3)sc2CC1 (stereo not drawn)
> 10000 | CC(C)(C)C(c1cc2c(s1)CCC(C(=O)O)=C2)n1ccnc1 (stereo not drawn)
1020 | O=C(O)C1CCc2sc(CCn3ccnc3)cc2C1 (stereo not drawn)
2680 | O=C(O)c1cc2c(s1)CC(Cn1ccnc1)CC2 (stereo not drawn)
86 | O=C(O)C1CCc2sc(Cn3ccnc3)cc2C1 (stereo not drawn)
100 | O=C(O)C1=Cc2cc(CCn3ccnc3)sc2CC1
> 10000 | O=C(O)C1=Cc2sc(CCn3ccnc3)cc2CC1
1850 | O=C(O)C1CCc2cc(CCn3ccnc3)sc2C1 (stereo not drawn)

biological target: Thromboxane-A synthase (Oryctolagus cuniculus); experiment: Inhibition of platelet microsomal thromboxane A2 synthetase in rabbits

IC50 [nM] | SMILES
13 | O=C(O)C1=Cc2sc(Cn3ccnc3)cc2CC1 [2-Imidazol-1-ylmethyl-4,5-dihydro-benzo[b]thiophene-6-carboxylic acid]

Reference: BindingDB's records for doi:10.1021/jm00126a020 (Sankyo, 1989)
